Test system: normal human dermal fibroblasts (NHDF) from a donor
Assay: collagen induction assay (Pro-collagen Type I EIA) in aged fibroblasts
Format: cell-based
Conditions: 72 hr, 18 ug/ml, positive control
Description: Moringa oleifera seed extract was tested at various concentrations for its ability to stimulate collagen production in normal human dermal fibroblasts (“NHDF”) from a donor in a collagen induction assay. Moringa oleifera extract diluted in dimethylsulfoxide (“DMSO”) (% concentrations 0.003125, 0.00625 and 0.0125), Moringa oleifera […] diluted in Dulbecco's Modified Eagle Medium supplemented with 10% Hyclone® bovine calf serum and 1% Cellgro® penicillin-streptomycin solution (“DMEM”) (% concentrations of 0.0000625, 0.000125, 0.00025, 0.0005), positive control (L-ascorbic acid, 18 ug/ml), and DMEM alone were tested. Cell Growth and Maintenance. Aged NHDF were obtained from ZenBio. Fibroblasts were cultured in DMEM 1× (Life Tech) supplemented with 10% bovine calf serum (Hyclone) and 1% PenStrep solution (Cellgro). Cells were regularly maintained; subcultured as needed. Normal human dermal fibroblasts (NHDF, aged) were plated on a 96-well plate in supplemented DMEM (as indicated above). […] Alamar Blue results were determined using a plate reader. Data was analyzed using the SoftMax Pro software and Excel. Collagen production was assessed using the Pro-collagen Type I collagen EIA Kit (Takara) as per manufacturer's protocol, exactly as described. Plate was read using the Gemini M2E plate reader and results were compared. […]

For `O=C1O[C@H]([C@@H](O)CO)C(O)=C1O` [L-ascorbic acid (+Control), L-ascorbic acid], the “% increase in collagen induction” value was “+16%”.

Reference: patent US9877916B2, “Methods and compositions for treating aged skin” (ELC Management LLC, priority 2016, dated 2018)
